These results are taken from PubChem BioAssay (NCI).

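Values below derive from 48-hour exposures of cells grown in 96-well plates, with endpoints linearly interpolated between the two concentrations bracketing the appropriate inhibition level. TGI: concentration producing complete growth inhibition.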

Test systems include KM12 colon; M14 melanoma; SF-295 CNS; SK-MEL-5 melanoma; BT-549 breast; HL-60(TB) leukemia; K-562 leukemia; T-47D breast; MDA-N; COLO 205 colon; HT29 colon; U251 CNS; MOLT-4 leukemia.
Common to all, as to assay: DTP human tumour cell line panel, 48 h

What is called TGI is the concentration giving total growth inhibition. Low values mean greater sensitivity of the cells, high ones lower sensitivity of the cells. With `COC(=O)C1=C(O)C(C(=O)OC)[C@@]2(O)[C@@H](C(=O)OC)C(c3ccc(OC(=O)/C(=C/c4ccccc4)c4ccccc4)cc3)C[C@@H]1[C@@H]2C(=O)OC` (stereo not given in full), the TGI is greater than 100 µM in the test with KM12 colon; 33 µM with M14 melanoma; greater than 100 µM in the test with SF-295 CNS; greater than 100 µM with SK-MEL-5 melanoma; greater than 100 µM in the test with BT-549 breast; greater than 100 µM in the test on HL-60(TB) leukemia. Besides, the TGI was greater than 100 µM in the test on K-562 leukemia; greater than 100 µM with T-47D breast; 87.7 µM with MDA-N; greater than 100 µM in the test with COLO 205 colon; greater than 100 µM in the test with HT29 colon; greater than 100 µM in the test on U251 CNS. The same molecule gave a TGI with MOLT-4 leukemia greater than 100 µM.
Consider `CN(C)c1ncc(-c2c[nH]c3ccccc23)nc1-c1c[nH]c2ccccc12`, for which the TGI with KM12 colon was 5.3 µM; in the test on M14 melanoma, 3.99 µM; with SF-295 CNS it was 6.48 µM; with SK-MEL-5 melanoma, 15.9 µM; in the test on BT-549 breast it was 49.1 µM; with HL-60(TB) leukemia, greater than 100 µM. Moreover, the total growth inhibition concentration (TGI) is 8.48 µM in the test with K-562 leukemia; 19.9 µM in the test with T-47D breast; 4.54 µM in the test on MDA-N; 5.2 µM in the test on COLO 205 colon; 4.93 µM in the test with HT29 colon; 11.4 µM with U251 CNS. In the test on MOLT-4 leukemia, this molecule yielded a total growth inhibition concentration (TGI) of 27.5 µM.
In the case of `Cc1ccc(-c2n[nH]c(=O)n2N)cc1`, the TGI in the test on KM12 colon, in the test on M14 melanoma, with SF-295 CNS, in the test with SK-MEL-5 melanoma, in the test on BT-549 breast and in the test on HL-60(TB) leukemia was greater than 100 µM throughout. The TGI in the test on K-562 leukemia, in the test on T-47D breast, with MDA-N, in the test on COLO 205 colon, in the test on HT29 colon and in the test with U251 CNS was greater than 100 µM in each case. Also, the TGI with MOLT-4 leukemia is greater than 100 µM.
For `C[C@H](C(=O)N1C(=O)O[C@@H](c2ccccc2)[C@H]1C)[C@H](c1ccccc1)N(Cc1ccccc1)OC(=O)c1ccccc1`, the TGI is greater than 100 µM in the test on KM12 colon; greater than 100 µM with M14 melanoma; 90.9 µM in the test with SF-295 CNS; 69.2 µM in the test on SK-MEL-5 melanoma; greater than 100 µM in the test with BT-549 breast; greater than 100 µM in the test with HL-60(TB) leukemia. Also, the TGI with K-562 leukemia, in the test with T-47D breast, with MDA-N, with COLO 205 colon, in the test with HT29 colon and in the test with U251 CNS was greater than 100 µM each time. In the test with MOLT-4 leukemia, this molecule gave a TGI greater than 100 µM.
Regarding `CNC(=S)N/N=C(\C)c1ccc(OC)cc1O`, the TGI in the test on KM12 colon was greater than 100 µM; in the test on M14 melanoma, greater than 100 µM; in the test with SF-295 CNS it was greater than 100 µM; in the test with SK-MEL-5 melanoma, greater than 69.5 µM; in the test with BT-549 breast, greater than 100 µM; in the test with HL-60(TB) leukemia it was greater than 100 µM. In addition, the TGI in the test on K-562 leukemia, in the test on T-47D breast, in the test with MDA-N, in the test with COLO 205 colon, with HT29 colon and in the test with U251 CNS was greater than 100 µM each time. For the same molecule, the TGI in the test on MOLT-4 leukemia is greater than 100 µM.
On to `COc1ccc(Oc2nc3cc(C(F)(F)F)ccc3nc2C(C)C)cc1`, for which the total growth inhibition concentration (TGI) in the test on KM12 colon is greater than 100 µM; with M14 melanoma it was greater than 100 µM; in the test on SF-295 CNS, 51 µM; in the test with SK-MEL-5 melanoma, 52.2 µM; in the test with BT-549 breast it was 65.8 µM; in the test with HL-60(TB) leukemia, 37.7 µM. Besides, the TGI with K-562 leukemia is 86.7 µM; with T-47D breast, 54.4 µM; in the test with MDA-N it was greater than 100 µM; in the test with COLO 205 colon, 30.2 µM; in the test on HT29 colon it was 44.6 µM; in the test on U251 CNS, 50.8 µM. This molecule showed a TGI in the test with MOLT-4 leukemia of 36.9 µM.
For the molecule `COC(=O)C1=C(C(=O)OC)C2(/N=C(\Nc3ccccc3)c3ccccc3)N(c3ccc(OC)cc3)CC(c3ccccc3)N2O1` (stereo not given), the TGI in the test with KM12 colon, with M14 melanoma, with SF-295 CNS, with SK-MEL-5 melanoma, in the test on BT-549 breast and in the test on HL-60(TB) leukemia was greater than 100 µM each time. The TGI with K-562 leukemia, in the test with T-47D breast, in the test with MDA-N, with COLO 205 colon, with HT29 colon and with U251 CNS was greater than 100 µM throughout. This molecule gave a TGI with MOLT-4 leukemia greater than 100 µM.
`COc1ccc(C(=O)N=C2N(c3ccccc3)C(=Nc3ccccc3)C(=Nc3ccccc3)N2c2ccccc2)cc1`: the TGI is greater than 100 µM in the test with KM12 colon; greater than 65.2 µM in the test with M14 melanoma; greater than 100 µM in the test with SF-295 CNS; greater than 56.7 µM with SK-MEL-5 melanoma; greater than 58.2 µM in the test with BT-549 breast; greater than 100 µM in the test with HL-60(TB) leukemia. Also, the TGI is greater than 100 µM in the test with K-562 leukemia; greater than 100 µM in the test with T-47D breast; greater than 100 µM in the test with MDA-N; greater than 100 µM in the test on COLO 205 colon; greater than 100 µM with HT29 colon; greater than 87.9 µM in the test with U251 CNS. The molecule also showed a TGI in the test on MOLT-4 leukemia greater than 100 µM.
Turning to `CC1(C)C2CCC1(C)C(NC(=O)CCN1CCOCC1)C2` (stereo not given), the TGI with KM12 colon, in the test with M14 melanoma, in the test on SF-295 CNS, in the test on SK-MEL-5 melanoma, in the test on BT-549 breast and in the test on HL-60(TB) leukemia was greater than 100 µM each time. Further, the TGI with K-562 leukemia, with T-47D breast, with MDA-N, with COLO 205 colon, in the test on HT29 colon and in the test with U251 CNS was greater than 100 µM each time. In the test with MOLT-4 leukemia, the TGI is greater than 100 µM.
With `O=C(c1cccs1)N(C(=S)OCc1ccccn1)c1ccccc1`, the TGI with KM12 colon, in the test with M14 melanoma, with SF-295 CNS, with SK-MEL-5 melanoma, in the test on BT-549 breast and in the test with HL-60(TB) leukemia was greater than 100 µM throughout. Moreover, the TGI in the test on K-562 leukemia, in the test on T-47D breast, in the test with MDA-N, with COLO 205 colon, in the test on HT29 colon and in the test with U251 CNS was greater than 100 µM each time. For the same molecule, the TGI in the test with MOLT-4 leukemia was greater than 100 µM.
